Patent US8802597B2, “Herbicidal pyrimidines” (E I du Pont de Nemours and Company, priority 2003, dated 2014)
Where two headings read alike, the source gives them in different places.

Columns and labels:
Assay type in all cases: in vivo
corn (Zea mays) = assay: Test B pre/postemergence; conditions: Zea mays
In short: (§1)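 Under greenhouse conditions, seeded pots and young plants (1- to 4-leaf, 2 to 18 cm) were treated at the same time with test chemicals in a non-phytotoxic solvent mixture containing surfactant. Response was assessed visually after 13 to 15 days, from 0 (no effect) to 100 (complete control).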

[1] = test system: Surinam grass (Brachiaria decumbens); assay: Test B pre/postemergence; conditions: Urochloa decumbens; for pest or weed control at 125 g/ha: 125 g ai/ha; for pest or weed control at 62 g/ha: 62 g ai/ha
In short: as §1

[2] = test system: lambsquarters (Chenopodium album); assay: Test B pre/postemergence; conditions: Chenopodium album; for pest or weed control at 62 g/ha: 62 g ai/ha; for pest or weed control at 125 g/ha: 125 g ai/ha
In short: as §1

[3] = test system: wheat (Triticum aestivum); assay: Test B pre/postemergence; conditions: Triticum aestivum, scale 0 to 100 (0 no effect, 100 complete control); for plant injury at 62 g/ha: 62 g ai/ha; for plant injury at 125 g/ha: 125 g ai/ha
In short: as §1

[4] = test system: barnyardgrass (Echinochloa crus-galli); assay: Test B pre/postemergence; conditions: Echinochloa crus-galli, scale 0 to 100 (0 no effect, 100 complete control); for pest or weed control at 62 g/ha: 62 g ai/ha; for pest or weed control at 125 g/ha: 125 g ai/ha
In short: as §1

[5] = test system: velvetleaf (Abutilon theophrasti); assay: Test B pre/postemergence; conditions: Abutilon theophrasti; for pest or weed control at 62 g/ha: 62 g ai/ha; for pest or weed control at 125 g/ha: 125 g ai/ha
In short: as §1

[6] = test system: morningglory (Ipomoea coccinea); assay: Test B pre/postemergence; conditions: Ipomoea; for pest or weed control at 62 g/ha: 62 g ai/ha; for pest or weed control at 125 g/ha: 125 g ai/ha
In short: as §1

[7] = test system: cocklebur (Xanthium strumarium); assay: Test B pre/postemergence; conditions: Xanthium strumarium; for pest or weed control at 62 g/ha: 62 g ai/ha; for pest or weed control at 125 g/ha: 125 g ai/ha
In short: as §1

[8] = test system: pigweed (Amaranthus retroflexus); assay: Test B pre/postemergence; conditions: Amaranthus retroflexus; for pest or weed control at 62 g/ha: 62 g ai/ha; for pest or weed control at 125 g/ha: 125 g ai/ha
In short: as §1

[9] = test system: crabgrass (Digitaria sanguinalis); assay: Test B pre/postemergence; conditions: Digitaria sanguinalis; for pest or weed control at 62 g/ha: 62 g ai/ha; for pest or weed control at 125 g/ha: 125 g ai/ha
In short: as §1

[10] = test system: giant foxtail (Setaria faberii); assay: Test B pre/postemergence; conditions: Setaria faberi; for pest or weed control at 125 g/ha: 125 g ai/ha; for pest or weed control at 62 g/ha: 62 g ai/ha
In short: as §1

rice (Oryza sativa) = assay: Test B flooded paddy test; conditions: Oryza sativa, Flood, scale 0 to 100, read-out: Plant response rating, Rice
In short: (§2)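 Plants were grown to the 2-leaf stage before treatment, then kept in a greenhouse for 13 to 15 days. Injury was rated visually against untreated controls on a 0 to 100 scale, where 0 is no effect and 100 is complete control.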

[11] = test system: barnyardgrass (Echinochloa crus-galli); assay: Test B flooded paddy test; conditions: Echinochloa crus-galli, Flood, scale 0 to 100, read-out: Plant response rating, Barnyardgrass
In short: as §2

[12] = test system: duck salad (Heteranthera limosa); assay: Test B flooded paddy test; conditions: Heteranthera limosa, Flood, scale 0 to 100, read-out: Plant response rating, Ducksalad
In short: as §2

[13] = test system: umbrella sedge (Cyperus difformis); assay: Test B flooded paddy test; conditions: Cyperus difformis, Flood, scale 0 to 100, read-out: Plant response rating, Sedge, Umbrella
In short: as §2

[14] = test system: blackgrass (Alopecurus myosuroides); assay: Test B postemergence; conditions: Alopecurus myosuroides, post-emergence, scale 0 to 100 (0 no effect, 100 complete control), read-out: Blackgrass plant response rating
In short: as §1

wild oat (Avena fatua) = assay: Test B postemergence; conditions: Avena fatua, post-emergence, scale 0 to 100 (0 no effect, 100 complete control), read-out: Oat, Wild plant response rating
In short: as §1

[15] = post-emergence, Postemergence, scale 0 to 100 (0 no effect, 100 complete control), read-out: Surinam Grass plant response rating
[16] = post-emergence, Postemergence, scale 0 to 100 (0 no effect, 100 complete control), read-out: Lambsquarters plant response rating
[17] = post-emergence, Postemergence, read-out: Wheat plant response rating
[18] = pre-emergence, Preemergence, read-out: Plant response rating, Wheat
[19] = post-emergence, Postemergence, read-out: Barnyardgrass plant response rating
[20] = pre-emergence, Preemergence, read-out: Plant response rating, Barnyardgrass
[21] = post-emergence, Postemergence, scale 0 to 100 (0 no effect, 100 complete control), read-out: Velvetleaf plant response rating
[22] = post-emergence, Postemergence, scale 0 to 100 (0 no effect, 100 complete control), read-out: Morningglory plant response rating
[23] = post-emergence, Postemergence, scale 0 to 100 (0 no effect, 100 complete control), read-out: Cocklebur plant response rating
[24] = post-emergence, Postemergence, scale 0 to 100 (0 no effect, 100 complete control), read-out: Pigweed plant response rating
[25] = post-emergence, Postemergence, scale 0 to 100 (0 no effect, 100 complete control), read-out: Crabgrass plant response rating
[26] = post-emergence, Postemergence, scale 0 to 100 (0 no effect, 100 complete control), read-out: Foxtail, Giant plant response rating

Nc1nc(C2CC2)nc(C(=O)OCc2ccccc2)c1Cl [Compound 78, phenylmethyl 6-amino-5-chloro-2-cyclopropyl-4-pyrimidinecarboxylate]
80%: plant injury at 125 g/ha (corn (Zea mays); post-emergence, Postemergence, 125 g ai/ha, scale 0 to 100 (0 no effect, 100 complete control), read-out: Corn plant response rating) | pest or weed control at 125 g/ha [1, 15] | pest or weed control at 62 g/ha [4, 19] | pest or weed control at 125 g/ha [5, 21] | pest or weed control at 62 g/ha ([6]; pre-emergence, Preemergence, scale 0 to 100, 0 no effect, 100 complete control, read-out: Plant response rating, Morningglory) | pest or weed control at 62 g/ha ([7]; pre-emergence, Preemergence, scale 0 to 100, 0 no effect, 100 complete control, read-out: Plant response rating, Cocklebur) | pest or weed control at 62 g/ha [8, 24] | pest or weed control at 62 g/ha ([9]; pre-emergence, Preemergence, scale 0 to 100, 0 no effect, 100 complete control, read-out: Plant response rating, Crabgrass)
0%: pest or weed control at 125 g/ha ([11]; 125 g ai/ha)
10%: pest or weed control at 125 g/ha ([13]; 125 g ai/ha)
30%: Corn plant response rating (crop injury, 0 = no effect, 100 = complete kill) at 62 g/ha (corn (Zea mays); pre-emergence, Preemergence, 62 g ai/ha, scale 0 to 100, 0 no effect, 100 complete control) | plant injury at 62 g/ha [3, 18]
60%: pest or weed control at 62 g/ha [1, 15] | pest or weed control at 62 g/ha ([1]; pre-emergence, Preemergence, scale 0 to 100, 0 no effect, 100 complete control, read-out: Plant response rating, Surinam Grass) | pest or weed control at 62 g/ha [4, 20] | pest or weed control at 62 g/ha [9, 25] | pest or weed control at 62 g/ha [10, 26]
20%: pest or weed control at 62 g/ha ([10]; pre-emergence, Preemergence, scale 0 to 100, 0 no effect, 100 complete control, read-out: Plant response rating, Foxtail, Giant) | plant injury at 125 g/ha (rice (Oryza sativa); 125 g ai/ha) | pest or weed control at 125 g/ha ([12]; 125 g ai/ha) | pest or weed control at 62 g/ha ([14]; 62 g ai/ha)
40%: plant injury at 62 g/ha (corn (Zea mays); post-emergence, Postemergence, 62 g ai/ha, scale 0 to 100 (0 no effect, 100 complete control), read-out: Corn plant response rating) | plant injury at 500 g/ha (rice (Oryza sativa); 500 g ai/ha) | pest or weed control at 500 g/ha ([11]; 500 g ai/ha) | pest or weed control at 125 g/ha ([14]; 125 g ai/ha)
100%: pest or weed control at 62 g/ha [2, 16] | pest or weed control at 125 g/ha [2, 16] | pest or weed control at 125 g/ha ([2]; pre-emergence, Preemergence, scale 0 to 100 (0 no effect, 100 complete control), read-out: Plant response rating, Lambsquarters) | pest or weed control at 62 g/ha [6, 22] | pest or weed control at 125 g/ha [6, 22] | pest or weed control at 125 g/ha ([6]; pre-emergence, Preemergence, scale 0 to 100 (0 no effect, 100 complete control), read-out: Plant response rating, Morningglory) | pest or weed control at 62 g/ha [7, 23] | pest or weed control at 125 g/ha [7, 23] | pest or weed control at 125 g/ha ([7]; pre-emergence, Preemergence, scale 0 to 100 (0 no effect, 100 complete control), read-out: Plant response rating, Cocklebur) | pest or weed control at 125 g/ha [8, 24] | pest or weed control at 62 g/ha ([8]; pre-emergence, Preemergence, scale 0 to 100, 0 no effect, 100 complete control, read-out: Plant response rating, Pigweed) | pest or weed control at 125 g/ha ([8]; pre-emergence, Preemergence, scale 0 to 100 (0 no effect, 100 complete control), read-out: Plant response rating, Pigweed)
70%: Corn plant response rating (crop injury, 0 = no effect, 100 = complete kill) at 125 g/ha (corn (Zea mays); pre-emergence, Preemergence, 125 g ai/ha, scale 0 to 100 (0 no effect, 100 complete control)) | plant injury at 125 g/ha [3, 17] | plant injury at 125 g/ha [3, 18] | pest or weed control at 125 g/ha [4, 20] | pest or weed control at 62 g/ha [5, 21] | pest or weed control at 62 g/ha ([5]; pre-emergence, Preemergence, scale 0 to 100, 0 no effect, 100 complete control, read-out: Plant response rating, Velvetleaf) | pest or weed control at 125 g/ha [9, 25] | pest or weed control at 125 g/ha [10, 26] | pest or weed control at 125 g/ha ([10]; pre-emergence, Preemergence, scale 0 to 100 (0 no effect, 100 complete control), read-out: Plant response rating, Foxtail, Giant) | pest or weed control at 500 g/ha ([12]; 500 g ai/ha) | pest or weed control at 125 g/ha (wild oat (Avena fatua); 125 g ai/ha)
50%: plant injury at 62 g/ha [3, 17] | pest or weed control at 500 g/ha ([13]; 500 g ai/ha) | pest or weed control at 62 g/ha (wild oat (Avena fatua); 62 g ai/ha)
90%: pest or weed control at 125 g/ha ([1]; pre-emergence, Preemergence, scale 0 to 100 (0 no effect, 100 complete control), read-out: Plant response rating, Surinam Grass) | pest or weed control at 62 g/ha ([2]; pre-emergence, Preemergence, scale 0 to 100, 0 no effect, 100 complete control, read-out: Plant response rating, Lambsquarters) | pest or weed control at 125 g/ha [4, 19] | pest or weed control at 125 g/ha ([5]; pre-emergence, Preemergence, scale 0 to 100 (0 no effect, 100 complete control), read-out: Plant response rating, Velvetleaf) | pest or weed control at 125 g/ha ([9]; pre-emergence, Preemergence, scale 0 to 100 (0 no effect, 100 complete control), read-out: Plant response rating, Crabgrass)
